Measurements: patent US20110060045A1, “ANTI-DIABETIC CATARACT COMPOUNDS AND THEIR USES” (NATIONAL RESEARCH COUNCIL OF CANADA, priority 2006, published 2011)
Several values for one entry are separate records, joined by “and”; a condition that tells them apart may be missing. Equal entries are not always repeated. Where two headings read alike, the source gives them in different places.

Assays:
human eye = conditions: cited from earlier work
human eyes = conditions: cited from earlier work
[1] = target: T1, bovine serum albumin (BSA) with D-ribose (Bos taurus, UniProt P02769); assay: Maillard fluorescence-based anti-glycation assay; conditions: in vitro anti-glycation; for IC50: BSA 0.075 mM, D-ribose 50 mM, 37° C., 5 days; for Imax: maximum inhibition of Maillard fluorescence
Procedure: (§3) The Maillard fluorescence-based assay was used to screen anti-glycation activity of approximately 1,300 drugs or drug candidates. […] Briefly the assay involved incubation of bovine serum albumin (BSA) (0.075 mM) with D-ribose (50 mM) and an assay compound (0.47, 4.7 and 47 μg/mL). Solutions were incubated at 37° C. for 5 days.

[2] = better than epinephrine; cited from earlier work
[3] = pKa of the aromatic dihydroxyl group; format: physicochemical
dog = conditions: intravenous injection, compared with (R,S)-isoproterenol; cited from earlier work
PC12 cells [4] = assay: Anti-oxidant activity against oxidative stress by H2O2 at the cellular level; format: cell-based; conditions: 10-100 μM; H2O2 killed over 80% of the PC12 cells
Text: Glycation includes oxidative processes and is closely related to oxidative stress. […] The oxidative stress by H2O2 induces apoptosis in vitro and in vivo, and effective anti-oxidants such as N-acetyl-cysteine reduces the oxidative stress and protects the cells from the apoptosis.

[5] = system: Streptozotocin-injected diabetic rats; assay: Diabetic cataract initiation and progression in Streptozotocin-injected rats, eye drops; format: in vivo, rat; conditions: for Time entered in level 4 / Time stayed in level 0 / Time stayed in level 1 / Time stayed in level 2 / Time stayed in level 3: individual diabetic rats with drug; for Time entered in level 4 / Time stayed in level 0 / Time stayed in level 1 / Time stayed in level 2 / Time stayed in level 3 / Time stayed in level 0 (cataract initiation), Av ± STD / Time stayed in level 1, Av ± STD / Time stayed in level 2, Av ± STD / Time stayed in level 3, Av ± STD: hydrochloride; for Time stayed in level 0 (cataract initiation), Av ± STD / Time stayed in level 1, Av ± STD / Time stayed in level 2, Av ± STD / Time stayed in level 3, Av ± STD: diabetic rats with drug, n=17, both eyes; for Time stayed in level 0 (cataract initiation), Av ± STD: 0.10% eye drop twice a day
Text: A rat model was used to study the effect of (S)-isoproterenol on diabetic cataract, that of streptozotocin-injection to induce diabetes by destroying the β-cells of the pancreas. This model has been widely used to study diabetes-related pathological events and their possible treatments (Dagher et al., 2004; Ben-nun et al., 2004; Chung et al., 2005). The rat model has an advantage of rapid formation of diabetic cataract such that initial cataract was observed as early as 8-9 weeks in the majority of the control diabetic rats. Two-month-old male Sprague-Dawley rats were purchased from Charles River, Canada. They were housed in the Biotechnology Research Institute (BRI)—animal facility. Housing and all experimental manipulations were approved by the BRI Animal Care Committee that functions under the guidelines of the Canadian Council of Animal Care.
(§1) The pH of the eye drop was adjusted to 5.5 with 1N—HCl. […] The eye drop was freshly prepared every month and was stored at 4° C. […] The size of each eye drop was 50 μL.
Diabetes was induced in male Sprague-Dawley rats weighing approximately 200 to 250 g by a single intraperitoneal injection of the beta-cell toxin, Streptozotocin (STZ) (Sigma, St. Louis, […].), at a dose of 60 mg/kg body weight in 0.1M citrate buffer pH 4.5. Non-diabetic control rats received citrate buffer only.
(§2) Eye drops or vehicle were administered twice a day, seven days a week, on the cornea of different groups of rats, with a minimum interval of 7 h between the two treatments. To promote weight gain and limit hyperglycemia, diabetic rats were injected sub-cutaneously with 2 IU ultralente insulin (Humulin, Eli Lilly, Toronto, ON, Canada) three times a week. Animal weights were monitored every week.
Cataract progression was monitored by visual examination, twice a week. A scoring system was devised to evaluate the severity of the cataract. A healthy eye was given a score of 0 (normal level); when a faint pinkish hue was discernable (level 1), cataract formation was in its earliest stage of being visually detected and this stage was given a score of 1. When a white film is clearly detectable (level 2), a score of 2 was assigned. When the film covers the entire eye, but the pupils are still visible (level 3), a score of 3 was assigned, and finally the cataract was considered most severe (score of 4) when the pupil was not detected due to the formation of the white film (level 4).

[6] = system: human corneal epithelial cells (HCEC cells); conditions: human cornea epithelial cells, under the microscope
Procedure: HCEC cells were grown in EpiLife medium supplemented with human corneal growth supplements (HCGS; Cascade Biologics). The cells were maintained at 37° C. in a humidified atmosphere containing 5% CO2 and the medium was changed every other day. HCEC cells were seeded onto 96-well plates at a density of approximately 10^3 cells/well and cultivated for one day. […] The medium was aspirated and the treatments were applied to the cells (in triplicates) for different incubation times (5 minutes to 2 hours and 24 hours). At the end of the incubation times, the survival of the cells was visually examined under microscope.

PC12 cells [7] = assay: Cytotoxicity in PC12 cells (MTT assay); format: cell-based
Procedure: The cytotoxicity of (S)-isoproterenol dipivalate was measured by using PC12 cells. […] PC12 cells were seeded onto rat-tail collagen coated 96-well plates at a density of 2×10^4 cells/well and cultivated for one day. On the day of the experiment, dilutions of (S)-isoproterenol dipivalate ranging from 100 μM to 10 mM were prepared in complete medium. […] At the end of the incubation times, the medium was aspirated and 100 μL of a solution of MTT (3-(4,5-dimethylthiazol-2-yl)-2,5-diphenyltetrazolium; 0.2 mg/ml in complete medium) was added to the cells. After incubation at 37° C. for 2 hours, MTT was removed and the colored formazan was dissolved in dimethyl sulfoxide (DMSO) (½ hour at 37° C.). Reduction was measured by colorimetric detection (595 nm) of the blue insoluble formazan product. This assay provides an estimate of the number of functioning mitochondria present in the cells; i.e. the quantity of formazan product is directly proportional to the number of metabolically active cells in the culture. The viability of PC12 cells in each well was presented as percentage of control cells.

[8] = Storage stability of the eye drop (HPLC profiles); format: physicochemical; conditions: eye drop pH 5.5, one month of storage at 4° C.
Procedure: as §1

[9] = target: T1, bovine serum albumin (BSA) with D-ribose; assay: biochemical
Procedure: as §3

[10] = Body weight of non-diabetic and diabetic rats; format: in vivo, rat
Procedure: as §2

[11] = large intravenous dose; cited from earlier work
[12] = 2.47% instilled to normal human eyes (Bonomi 1964)

T1 sequence (P02769 25-607): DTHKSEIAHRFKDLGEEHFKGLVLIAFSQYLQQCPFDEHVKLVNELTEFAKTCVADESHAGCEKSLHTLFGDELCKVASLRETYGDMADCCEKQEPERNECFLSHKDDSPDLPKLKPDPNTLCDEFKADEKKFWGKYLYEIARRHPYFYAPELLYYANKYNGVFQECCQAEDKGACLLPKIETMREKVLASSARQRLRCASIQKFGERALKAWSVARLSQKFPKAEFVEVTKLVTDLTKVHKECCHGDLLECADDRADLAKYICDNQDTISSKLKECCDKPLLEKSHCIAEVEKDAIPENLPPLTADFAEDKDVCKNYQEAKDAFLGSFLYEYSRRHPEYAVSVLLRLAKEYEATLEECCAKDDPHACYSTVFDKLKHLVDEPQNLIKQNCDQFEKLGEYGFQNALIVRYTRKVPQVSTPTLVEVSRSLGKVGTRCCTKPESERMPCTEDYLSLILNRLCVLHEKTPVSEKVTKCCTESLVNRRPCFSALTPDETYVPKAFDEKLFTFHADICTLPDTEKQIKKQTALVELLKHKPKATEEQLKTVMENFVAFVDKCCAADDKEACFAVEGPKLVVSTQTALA

## CC(C)NC[C@@H](O)c1ccc(O)c(O)c1.Cl [(S)-isoproterenol HCl, (S)-isoproterenol hydrochloride]
Human eye; topical administration of up to 20%, human eye
  effect on intra-ocular pressure: did not show any indication to lower intra-ocular pressure
Human eyes; topical administration of 20%, persisted for several hours
  ocular adverse effects: marked conjunctival hyperemia and mild miosis

## NC[C@@H](O)c1ccc(O)c(O)c1 [(S)-Norepinephrine]
[1]
  IC50: 40.3 ± 4.7 µM
  Imax: 93%

## NC[C@H](O)c1ccc(O)c(O)c1 [(R)-Norepinephrine]
[1]
  IC50: 39.6 ± 3.4 µM
  Imax: 92%

## (R)-Epinephrine
[1]
  IC50: 15.5 ± 1.7 µM
  Imax: 83%

## CC(C)NCC(O)c1ccc(O)c(O)c1 (racemic) [(R,S)-isoproterenol]
Human eye; [12]
  duration of reduction in ocular tension: at least 12 h
  reduction in ocular tension: 20%

## CNCC(O)c1ccc(OC(=O)C(C)(C)C)c(OC(=O)C(C)(C)C)c1 (racemic) [Dipivefrin, (R,S)-epinephrine dipivalate]
[2]
  enhancement of ocular absorption: 17 time

## CC(C)NCC(O)c1ccc(O)c(O)c1 (centres unmarked) [isoproterenol]
[3]
  pKa: 8.72 ± 0.05

## CNCC(O)c1ccc(O)c(O)c1 (racemic) [(R,S)-Epinephrine]
[1]
  IC50: 17 ± 1.1 µM
  Imax: 82%

## CC(C)NCC(O)c1ccc(OC(=O)C(C)(C)C)c(OC(=O)C(C)(C)C)c1 (racemic)
dog
  cardiovascular effect: did not produce any unique cardiovascular effect

## CC(C)NC[C@@H](O)c1ccc(OC(=O)C(C)(C)C)c(OC(=O)C(C)(C)C)c1.Cl [(S)-isoproterenol dipivalate, (S)-isoproterenol dipivalate hydrochloride]
PC12 cells [4]
  protective effect against H2O2 oxidative stress: did not show any protective effect
[5]; Left eye
  Time entered in level 4: 14.5 week and 19.5 week and 19 week (2×) and 16 week and 18.5 week and 20.5 week (2×) and 8 week and 22 week
  Time stayed in level 0: 8 week (6×) and 9 week (3×) and 14 week and 18 week and >30 week (4×) and >23 week and 12 week
  Time stayed in level 1: 1 week (4×) and 2.5 week and 2 week (3×) and 0.5 week (2×) and 3 week (2×)
  Time stayed in level 2: 2 week (5×) and 1 week and 1.5 week (2×) and 0.5 week (2×) and 2.5 week and 5 week
  Time stayed in level 3: 2.5 week and 7.5 week and 5.5 week and 3 week and 3.5 week and 7 week and 8 week and 4 week and 5 week and 6.5 week
[5]; Right eye
  Time entered in level 4: 14.5 week and 19.5 week and 19 week (3×) and 15.5 week and 20.5 week (2×) and 8 week and 22 week
  Time stayed in level 0: 8 week (7×) and 13 week and 18.5 week (2×) and 17 week and >30 week (2×) and 18 week and 14 week and 11.5 week and 12 week
  Time stayed in level 1: 1 week (7×) and 0.5 week (5×) and 2.5 week and 2 week and 0 week
  Time stayed in level 2: 2 week (7×) and 0.5 week (2×) and 1.5 week and 1 week (2×) and 5 week and 2.5 week (2×)
  Time stayed in level 3: 2.5 week and 7.5 week and 7 week (2×) and 4 week (2×) and 3 week and 8 week and 6.5 week (2×)
[5]
  Time stayed in level 0 (cataract initiation), Av ± STD: 15.0±8.3 week
  Time stayed in level 1, Av ± STD: 1.24 ± 0.82 week
  Time stayed in level 2, Av ± STD: 1.88 ± 1.09 week
  Time stayed in level 3, Av ± STD: 5.4 ± 1.9 week
[5]; listed as drug
  Time stayed in level 0 (cataract initiation), Av ± STD: >15.0 ± 8.3 week
[5]; listed as prodrug
  Time stayed in level 1, Av ± STD: 1.24±0.82 week
  Time stayed in level 2, Av ± STD: 1.88±1.09 week
  Time stayed in level 3, Av ± STD: 5.4±1.9 week
[5]; eyes initiating at 8.6±1.2 weeks
  percentage of eyes initiating cataract: 53%
[5]; eyes initiating at 17.1±3.1 weeks
  percentage of eyes initiating cataract: 26%
[5]; eyes initiating at >30 weeks (except one eye >23 weeks)
  percentage of eyes initiating cataract: 21%
[5]; first subgroup, 53% of the eyes
  time of cataract initiation: 8.6±1.2 weeks
[5]; second subgroup, 26% of the eyes
  time of cataract initiation: 17.1±3.1 weeks
[5]; third subgroup, 21% of the eyes
  time of cataract initiation: > 30 weeks
Group II, non-diabetic rats receiving prodrug, 27 week period
  blood glucose level: 5.1 ± 0.4 mM
Group IV, diabetic rats receiving prodrug, stabilized level
  blood glucose level: 27 ± 5 mM
[6]
  concentration with no visibly noticed cytotoxicity: up to 25 mM
PC12 cells [7]; longer incubation up to 24 h, minimum media (data not shown)
  tolerance of PC12 cells: 500 µM
PC12 cells [7]; short incubation up to 2 hr
  concentration PC12 cells were tolerant to: up to 500 μM
[8]
  degradation on storage: No degradation

## CC(C)NC[C@H](O)c1ccc(O)c(O)c1 [(R)-Isoproterenol]
[9]
  IC50: 18.1 ± 1.1 µM
[1]
  Imax: 86%

## CC(C)NC[C@@H](O)c1ccc(O)c(O)c1.O=C(O)C(O)C(O)C(=O)O [(S)-Isoproterenol, (S)-isoproterenol bitartrate]
[10]; diabetic rats, Group IV vs Group III
  effect on weight gain/loss: no effect
[10]; non-diabetic rats, Group II vs Group I
  effect on weight gain/loss: no effect
PC12 cells [4]
  protective effect against H2O2 oxidative stress: did not show any protective effect
Groups I vs II and III vs IV
  effect on blood glucose level and diabetes: does not affect the blood glucose level
Human eyes; eye drop, 10%, human eyes
  ocular adverse effects: only brief mild conjunctival hyperemia and irritation
[11]
  effects on blood pressure and pulse rate: only slight and transient effects on blood pressure and pulse rate
[1]
  IC50: 16.8 ± 0.8 µM
  Imax: 81%
